# In US6197771A, “Glutamate (ampa/kainate) receptor antagonists: N-substituted fused azacycloalkylquinoxalinediones” (Warner-Lambert Company, priority 2000, dated 2001):
# Where a name gives a salt, the structure may show the parent alone.
# Legend:
# [1] = molecular target: kainate site (non-NMDA receptor); assay: Kainate site (non-NMDA receptor) binding (London and Coyle)
# AMPA receptor = AMPA receptor binding (Honore et al.)
# [2] = molecular target: T1, glycine site of the NMDA receptor (Rattus norvegicus, UniProt P35439); assay: Binding to the glycine site of the NMDA receptor (Jones et al.)
# T1 construct: from tissue
SMILES,IC50 [1] [µM],IC50 (AMPA receptor) [µM],inhibition at 10 µM [2] [%]
"O=c1[nH]c2ccc3c(c2[nH]c1=O)CNCC3 [Example 30, 1,4,7,8,9,10-Hexahydropyrido[3,4-f]quinoxaline-2,3-dione]",56,84,
"O=c1[nH]c2cc([N+](=O)[O-])c3c(c2[nH]c1=O)CNCC3 [Example 31, 1,4,7,8,9,10-Hexahydro-6-nitropyrido[3,4-f]quinoxaline-2,3-dione]",0.48,51,70
"CC(C)(C)OC(=O)N1CCC(C(=O)N2CCc3ccc4[nH]c(=O)c(=O)[nH]c4c3C2)CC1 [Example 32, 1,1-dimethylethyl 4-[(1,2,3,4,7,8,9,10-octahydro-2,3-dioxopyrido[3,4-f]quinoxaline-9-yl)carbonyl]-1-piperidine carboxylate]",65,> 100,
"CC(C)(C)OC(=O)N1CCC(C(=O)N2CCc3c([N+](=O)[O-])cc4[nH]c(=O)c(=O)[nH]c4c3C2)CC1 [Example 34, 1,1-dimethylethyl 4-[(1,2,3,4,7,8,9,10-octahydro-6-nitro-2,3-dioxopyrido[3,4-f]quinoxaline-9-yl)carbonyl]-1-piperidine carboxylate]",6.9,0.58,81
"O=C(c1ccccc1)N1CCc2c([N+](=O)[O-])cc3[nH]c(=O)c(=O)[nH]c3c2C1 [Example 35, 9-Benzoyl-1,4,7,8,9,10-hexahydro-6-nitropyrido[3,4-f]quinoxaline-2,3-dione]",1.38,0.37,80
"O=C(C1CCCCC1)N1CCc2c([N+](=O)[O-])cc3[nH]c(=O)c(=O)[nH]c3c2C1 [Example 36, 9-(Cyclohexylcarbonyl)-1,4,7,8,9,10-hexahydro-6-nitropyrido[3,4-f]quinoxaline-2,3-dione]",5.87,0.34,88
"O=C(c1ccc(Cl)cc1)N1CCc2c([N+](=O)[O-])cc3[nH]c(=O)c(=O)[nH]c3c2C1 [Example 37, 9-(4-Chlorobenzoyl)-1,4,7,8,9,10-hexahydro-6-nitropyrido[3,4-f]quinoxaline-2,3-dione]",8.2,0.84,74

# Next, values leading:
IC50 [1] [µM],IC50 (AMPA receptor) [µM],inhibition at 10 µM [2] [%],SMILES
16,20,< 50,"O=c1[nH]c2cc(Br)c3c(c2[nH]c1=O)CN(Cc1ccccc1)CC3 [Example 8, 6-Bromo-1,4,7,8,9,10-hexahydro-9-(phenylmethyl)pryrido[3,4-f]quinoxaline-2,3-dione]"
9,> 100,< 50,"O=c1[nH]c2cc(Br)c3c(c2[nH]c1=O)CN(CCc1ccccc1)CC3 [Example 11, 6-Bromo-1,4,7,8,9,10-hexahydro-9-(2-phenylethyl)pyrido[3,4-f]quinoxaline-2,3-dione]"
40,> 100,< 50,"O=c1[nH]c2cc(Br)c3c(c2[nH]c1=O)CN(CCCc1ccccc1)CC3 [Example 14, 6-Bromo-1,4,7,8,9,10-hexahydro-9-(3-phenylpropyl)pyrido[3,4-f]quinoxaline-2,3-dione]"
> 100,> 100,,"O=c1[nH]c2ccc3c(c2[nH]c1=O)CN(Cc1ccc(C(F)(F)F)cc1)CC3 [Example 17, 1,4,7,8,9,10-Hexahydro-9-[[4-(trifluoromethyl)phenyl]methyl]pyrido[3,4-f]quinoxaline-2,3-dione]"
34,3.1,,O=c1[nH]c2cc([N+](=O)[O-])c3c(c2[nH]c1=O)CN(Cc1ccc(C(F)(F)F)cc1)CC3 [Example 18]
> 100,> 100,,O=c1[nH]c2ccc3c(c2[nH]c1=O)CCN(Cc1ccc(C(F)(F)F)cc1)C3 [Example 26]
1.62,0.24,99,"O=C(Cc1ccccc1)N1CCc2c([N+](=O)[O-])cc3[nH]c(=O)c(=O)[nH]c3c2C1 [Example 38, 1,4,7,8,9,10-Hexahydro-6-nitro-9-(phenylacetyl)pyrido(3,4-f]quinoxaline-2,3-dione]"
8.2,0.84,98,O=C(Cc1ccc(Cl)cc1)N1CCc2c([N+](=O)[O-])cc3[nH]c(=O)c(=O)[nH]c3c2C1 [Example 39]
67,21,,"O=c1[nH]c2cc(Br)c3c(c2[nH]c1=O)CCN(Cc1cccc(C(F)(F)F)c1)C3 [Example 48, 6-Bromo-1,4,7,8,9,10-Hexahydro-8-[[3-(trifluoromethyl)methyl]pyrido[3,4-f]quinoxaline-2,3-dione hydrochloride]"
> 100,43,,"O=c1[nH]c2cc(Br)c3c(c2[nH]c1=O)CCN(CCCc1ccccc1)C3 [Example 54, 6-Bromo-1,4,7,8,9,10-hexahydro-8-(3-Phenylproyl)pyrido[3,4-f]quinoxaline-2,3-dione hydrochloride]"
